In US12384751B2, “Allosteric activators of the ALPHA1A-adrenergic receptor” (The Cleveland Clinic Foundation, priority 2019, dated 2025):
Entries after “also recorded” stand apart in the source; their conditions may differ.

Columns and labels:
α1D-AR [1] = target: T1, α1D-AR (Homo sapiens, UniProt P25100); experiment: Effect of compound on binding affinity of norepinephrine at α1D-AR; conditions: 10^−5M
T1 construct: expressed in transfected cells; host or cells: Rat-1 fibroblast cells
T1 sequence (P25100 1-572): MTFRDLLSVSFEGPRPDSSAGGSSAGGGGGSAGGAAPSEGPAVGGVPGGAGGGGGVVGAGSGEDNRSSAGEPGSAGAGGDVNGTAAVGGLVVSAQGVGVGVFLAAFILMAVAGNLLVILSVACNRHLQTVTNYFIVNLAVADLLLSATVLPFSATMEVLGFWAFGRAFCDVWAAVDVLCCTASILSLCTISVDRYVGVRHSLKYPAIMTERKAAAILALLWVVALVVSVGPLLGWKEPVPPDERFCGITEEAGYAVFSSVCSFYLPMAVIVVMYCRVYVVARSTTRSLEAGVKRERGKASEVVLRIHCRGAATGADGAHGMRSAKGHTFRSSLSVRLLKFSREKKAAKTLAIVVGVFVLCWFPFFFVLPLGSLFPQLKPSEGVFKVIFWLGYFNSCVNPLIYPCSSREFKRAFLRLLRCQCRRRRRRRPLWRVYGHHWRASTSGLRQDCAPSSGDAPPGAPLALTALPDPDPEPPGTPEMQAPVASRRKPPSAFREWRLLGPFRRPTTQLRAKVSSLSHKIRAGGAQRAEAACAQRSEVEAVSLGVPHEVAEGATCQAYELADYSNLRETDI
Description: Competition binding assays: These compounds were characterized for their ligand binding properties at the α1-AR subtypes. The binding affinities of Compounds 1-10 were determined in a series of competition-binding experiments with the α1-AR-selective antagonist [^125I]HEAT as the radioligand. Assays were performed in duplicate in HEM buffer, in a total assay volume of 1000 μl. Radioligand binding assays are composed of 5 ug of membranes, harvested from Rat-1 fibroblast cells expressing only one of the alpha1-AR subtypes, HEM buffer containing GTP (composed of 20 mM HEPES, pH 7.4, 1.4 mM EGTA, 12.5 mM MgCl2, pH to 7.4), 0.5 mM GTP, 35-80 pM^125I-HEAT, and various doses of norepinephrine or epinephrine and incubated with shaking at 25° C. for 1-2 hours. The above conditions will convert all the conformations of the receptor into a single low affinity site. To show both high and low affinity sites of the receptor (typically seen with GPCR agonists), the GTP is removed from the binding buffer. Nonspecific binding was determined experimentally in the presence of 10^−4 M phentolamine. Unbound radioactivity was separated from membrane-bound radioactivity by filtration through Whatman GF/C filter paper. […] Bound radioactivity remaining on the filters was counted on an ICN gamma counter operating at 79.8% efficiency. Data are analyzed using Graphpad Prism. […]

[2] = system: 3×TG Alzheimer's Disease (AD) mouse model; experiment: Shortened Barnes Maze in 3×TG AD mice; assay type: in vivo
Description: (§1) AD mice were first randomized and sorted into control or treatment groups. […] 14 AD mice from each treatment group received Compound 3 in the drinking water (2.611 mg/kg/bw) to deliver a daily dose near the peak potentiation of the cAMP response in the brain at 10^−8M based upon the PAM assay and pharmacokinetics. This was achieved by adding Compound 3 to the drinking water at 32 uM, assuming the mice drink 6 ml/day, with only 10% of bioavailable drug reaching the brain. The drug was administered in the drinking water for 10 months, starting at age 2 months, then subjected to either different cognitive behavioral tests or electrophysiology at age 12 months to maximize the manifestations of AD symptoms in these mice. Mice are maintained on the drug for the duration of the studies and blinded to the operator.
Barnes Maze. The Barnes maze is used to assess spatial learning and memory and consists of a white, flat, circular platform elevated above ground with 40 holes, under which one escape box is located. Three visual cues are placed surrounding the maze and their locations in relation to the escape box and remain constant. Two floodlights and four fans above the maze provide aversion. […] At the start of each trial, a mouse is placed in the center of the maze under a holding chamber for 30 seconds. When the chamber is lifted, the mouse is allowed up to 300 seconds to enter the escape box. […] […] The procedure for the memory trials is the same as learning, except the mice are allowed only one attempt to solve the maze each day. Data includes the time to solve, number of errors made, and distance traveled. Errors are defined as when a mouse poked more than three-quarters of its head into any hole other than the appropriate escape hole. Distance traveled is measured using ANY-MAZE software.

[3] = Blood pressure in APP (London Mutation) AD mice and WT controls; assay type: in vivo, mouse; conditions: 40 mg/kg/bw daily
[4] = system: 3×TG Alzheimer's Disease (AD) mouse model; experiment: Tone-induced fear conditioning in 3×TG AD mice; assay type: in vivo
Description: as §1

α1D-AR [5] = target: T1, α1D-AR; experiment: Competition binding with [125I]HEAT at α1D-AR
Description: Competition binding assays: These compounds were characterized for their ligand binding properties at the α1-AR subtypes. The binding affinities of Compounds 1-10 were determined in a series of competition-binding experiments with the α1-AR-selective antagonist [^125I]HEAT as the radioligand. Assays were performed in duplicate in HEM buffer, in a total assay volume of 1000 μl. Radioligand binding assays are composed of 5 ug of membranes, harvested from Rat-1 fibroblast cells expressing only one of the alpha1-AR subtypes, HEM buffer containing GTP (composed of 20 mM HEPES, pH 7.4, 1.4 mM EGTA, 12.5 mM MgCl2, pH to 7.4), 0.5 mM GTP, 35-80 pM^125I-HEAT, and various doses of norepinephrine or epinephrine and incubated with shaking at 25° C. for 1-2 hours. The above conditions will convert all the conformations of the receptor into a single low affinity site. To show both high and low affinity sites of the receptor (typically seen with GPCR agonists), the GTP is removed from the binding buffer. Nonspecific binding was determined experimentally in the presence of 10^−4 M phentolamine. Unbound radioactivity was separated from membrane-bound radioactivity by filtration through Whatman GF/C filter paper. […] Bound radioactivity remaining on the filters was counted on an ICN gamma counter operating at 79.8% efficiency. Data are analyzed using Graphpad Prism.

[6] = system: 3×TG Alzheimer's Disease (AD) mouse model; experiment: Smart Cage locomotor activity in AD mice; assay type: in vivo; conditions: 48 hours

## CC(C)Cc1c(OCC2=NCCN2)cccc1N(C)S(C)(=O)=O [Compound 3, N-[3-(4,5-Dihydro-1H-imidazol-2-ylmethoxy)-2-isobutyl-phenyl]-N-methyl-methanesulfonamide]
α1D-AR [1]
  effect on affinity of norepinephrine at the α1D-AR: no effect; also recorded: does not increase the affinity of norepinephrine
[2]; AD mice, approached significance
  time to find the escape hole, day 5 memory test: decreased the time to find the escape hole
[2]; female AD mice, day 5 probe
  finding the correct escape hole (number of head pokes): increase the ability of female AD mice to find the correct escape hole
[2]; male AD mice, 5 day training
  latency to the escape hole during training period: significantly decrease the latency
[3]
  blood pressure, treated vs placebo: no changes in blood pressure
[4]; female AD mice
  velocity after tone (freezing): slower movement speed
[4]; male AD mice
  active time after tone (freezing): less active time
α1D-AR [5]
  specific binding at the α1D-AR: little, if any, specific binding; also recorded: no affinity
[6]
  locomotion assessed by amount of active time: little effect on locomotion
  locomotion assessed by velocity: little effect on locomotion
